Key:
[1] = test system: adult American dog tick (Dermacentor variabilis); experiment: Example 9: efficacy against adult American dog tick infestations on dogs; format: in vivo; conditions: 50 mg/kg oral
Procedure: (§1) The therapeutic (knockdown) and residual efficacy of 17, administered orally at a point dose of 50 mg/kg bodyweight, was evaluated against adult tick (Dermacentor variabilis and Rhipicephalus sanguineus) and adult cat flea (Ctenocephalides felis) infestations on dogs. Eight (8) male and female beagle dogs were allocated to either an untreated, negative control group or 17 group (n=4 dogs per group). Dogs were infested with approximately 50 unfed, adult D. variabilis ticks on Days −1, 5, 12, 19, and 28. On Day 0, dogs were orally administered gelatin capsules containing 17 (50% technical active, 47% microcrystalline cellulose and 3% croscarmellose sodium, w/w) at a point dose of 50 mg/kg. D. variabilis tick counts and classification were conducted on Day 1 (thumb count, approximately 24 hours after treatment) and Days 2, 7, 14, 21 and 30 (approximately 48 hours after treatment). Following removal of D. variabilis ticks on Day 30, all dogs were co-infested with approximately 50 unfed, adult brown dog ticks (R. sanguineus) and approximately 100 unfed, adult cat fleas (C. felis). Brown dog tick and cat flea counts were conducted on Day 32 (approximately 48 hours after infestation). GM percent efficacy of treatments against both tick species and fleas was calculated using the following formula: […]

[2] = Clinical signs / tolerability in rats; format: in vivo; conditions: oral ≦5 mg/kg, Example 8
[3] = test system: Lone star tick larvae (Amblyomma americanum); experiment: Larval immersion microassay against larval-stage Lone star ticks; conditions: for mortality at 300 µM: Amblyomma americanum, 24 h, read-out: activity (percent larval mortality)
Procedure: The larval immersion microassay was conducted as described in detail in White, et al., J. Med. Entomol. […] Compounds of the invention were formulated in dimethylsulfoxide (DMSO) to prepare a stock solution at a concentration of at least 10 mM. […] Approximately 30-50 Lone star tick larvae (Amblyomma americanum) were submerged into each well containing compounds. After a 30 minute immersion period, larvae were removed with a wide-bore pipette tip in 0.05 ml of fluid, dispensed into a commercial paper tissue biopsy bag which was sealed at the top with a plastic dialysis clip, inverted and allowed to air dry for 60 minutes. Bags containing larvae were then incubated at approximately 27 degrees Celsius and >90% relative humidity. After 24 hours, bags were opened, live and dead larvae were counted and percent larval mortality was calculated.
7 contains one chiral center, and is therefore a racemic mixture comprised of approximately 50% R- and 50% S-enantiomer. In vitro and surrogate animal (rat) studies were conducted to evaluate the biological activity of the R- and S-enantiomers of 7. For the in vitro study, larvae of the Lone star tick (Amblyomma americanum) were exposed to 17 (S-enantiomer) and 18 (R-enantiomer) using the larval immersion microassay at a concentration of no greater than 0.3 mM. Following exposure, larvae were removed, transferred to a tissue biopsy bag and incubated at approximately 27 degrees Celsius and >90% relative humidity. After 24 hours, biopsy bags were opened and the numbers of live and dead larvae were determined.

[4] = Tolerability of oral treatment in dogs; format: in vivo, beagle dogs
Procedure: The therapeutic (knockdown) and residual efficacy of 7, administered orally at a point dosages of 5 and 25 mg/kg bodyweight, was evaluated against adult American dog tick (D. variabilis) and cat flea (C. felis) infestations on dogs. Sixteen (16) male and female beagle dogs were allocated to one of four treatment groups: Untreated control group (n=4 dogs); 7, 5 mg/kg liquid oral dosage form (n=4 dogs); 7, 25 mg/kg liquid oral dosage form (n=4 dogs); and 7, 25 mg/kg solid oral dosage form. Liquid dosage forms were prepared by dissolving 7 in a solution of 55% polyethylene glycol-300, 35% propylene glycol and 10% water at 25 mg/ml. Solid oral dosage form was prepared by thoroughly mixing 7 with microcrystalline cellulose and croscarmellose sodium (50:47:3, w/w) and placing into size 00 gelatin capsules. On Day 0, all dogs were orally administered 7 at the prescribed point dosages. Twenty-four (24) hours before treatment (Day −1), all dogs were infested with approximately 50 unfed, adult-stage American dog ticks (D. variabilis; approximately 50% male and 50% female). On Day 2, approximately 48 hours after treatment, ticks were removed and counts were conducted to determine the number and life-status classification of ticks present on all dogs (normal, moribund or dead; attached or detached). For all groups, dogs were re-infested with approximately 50 unfed, adult D. variabilis ticks on Days 5 and 12, with tick classification, counts and removal on Days 7 and 14 (approximately 48 hours after each infestation). For negative control and 7 (25 mg/kg solid oral dosage form) groups, dogs were re-infested with approximately 50 unfed, adult D. variabilis ticks on Days 19 and 28, with tick classification, counts and removal on Days 21 and 30. Immediately following removal of ticks on Day 30, dogs in the negative control and 7 (25 mg/kg solid oral dosage form) groups were infested with approximately 100 unfed, adult cat fleas (C. felis). Flea counts were conducted approximately 48 hours later, on Day 32.
(§2) The therapeutic (knockdown) and residual efficacy of 7 and 8, each administered orally at a point dose of either 25 mg/kg or 50 mg/kg bodyweight, was evaluated against adult tick (Dermacentor variabilis and Rhipicephalus sanguineus) infestations on dogs. Twenty (20) male and female beagle dogs were allocated to one of five treatment groups, four (4) dogs per group: Untreated control; 7, 25 mg/kg; 7, 50 mg/kg; 8, 25 mg/kg; and 8, 50 mg/kg. On Day −1, all dogs were infested with approximately 50 unfed, adult D. variabilis ticks. On Day 0, dogs were orally administered gelatin capsules containing either 7 or 8 (50% technical active, 47% microcrystalline cellulose and 3% croscarmellose sodium, w/w) so as to achieve the desired point dosages. Ticks were counted and classified on all dogs, but not removed, on Day 1 (approximately 24 hours after treatment). On Day 2, approximately 48 hours after treatment, ticks were counted, classified and removed. Dogs were re-infested with the same number of D. variabilis ticks on Days 5, 12 and 19 with corresponding 48 hour post-infestation tick counts on Days 7, 14 and 21. Dogs were infested with approximately 50 unfed, adult brown dog ticks (Rhipicephalus sanguineus; approximately 50% male and 50% female) on Days 15 and 28, with corresponding 48 hour post-infestation tick counts on Days 17 and 30. GM percent efficacy of treatments against both tick species was calculated using the following formula: […]
The efficacy of 7, administered orally at a point dose of 25 mg/kg bodyweight, was evaluated against adult tick (Dermacentor variabilis) infestations. Twelve (12) male and female beagle dogs were allocated to three treatment groups: Untreated, negative control A; 7 group B; and 7 group C (n=4 dogs per group). Dogs were infested with approximately 50 unfed, adult D. variabilis ticks on Days −1, 5, 12, 19 and 28. […]

[5] = test system: cat flea (Ctenocephalides felis); experiment: Example 9: efficacy against cat flea infestations on dogs; format: in vivo; conditions: 50 mg/kg oral, Day 32
Procedure: as §1

[6] = test system: brown dog tick (Rhipicephalus sanguineus); experiment: Example 9: efficacy against brown dog tick infestations on dogs; format: in vivo; conditions: 50 mg/kg oral, Day 32
Procedure: as §1

[7] = test system: Dermacentor variabilis tick nymphs; experiment: Efficacy against nymphal-stage American dog ticks on rats; format: in vivo
Procedure: Evaluations were conducted using a modified version of the assay as described in Gutierrez et al., J. Med. Entomol. 43(3): 526-532 (2006). This assay may be modified by simply using different tick species (the reference describes Amblyomma americanum ticks), such as Dermacentor variabilis or Rhipicephalus sanguineus ticks, as well as different life-stages (larval, nymphal or adult). Further, the reference describes using topical application methods, but oral, transdermal and subcutaneous injection routes of administration may be used.
In these studies, adult male or female rats, approximately 300 grams in size, were randomly assigned to a treatment group or a control (untreated negative control or fipronil positive control) group. Each group consisted of three (3) to five (5) rats. […] On Day 2, approximately forty-eight (48) hours after treatment, live and dead ticks were removed from animals and counted.
Live tick counts were transformed using the natural logarithm transformation plus one (Ln count+1); addition of one to each count served to adjust for counts that were zero. […] GM percent efficacy of treatments was calculated using the following formula:
Enantiomers were evaluated for activity against American dog tick (Dermacentor variabilis) nymphs on rats. […] On Day 2, approximately forty-eight (48) hours after treatment, live and dead ticks were removed from animals and counted. […]

[8] = test system: brown dog tick (Rhipicephalus sanguineus); experiment: Example 5: efficacy against brown dog tick infestations on dogs; format: in vivo
Procedure: as §2

[9] = test system: adult American dog tick (Dermacentor variabilis); experiment: Example 5: efficacy against adult American dog tick infestations on dogs; format: in vivo
Procedure: as §2

Q: For `CC1(C)OB(O)c2ccc(C3=NO[C@@](c4cc(Cl)c(Cl)c(Cl)c4)(C(F)(F)F)C3)cc21` [Compound 17, (S)-3,3-Dimethyl-5-(5-(3,4,5-trichlorophenyl)-5-(trifluoromethyl)-4,5-dihydroisoxazol-3-yl)benzo[c][1,2]oxaborol-1(3H)-ol], which “Geometric mean group live tick count” value ([1]; Day 1) is on record?
A: 0.7

Q: What about the “Geometric mean group live tick count” value ([1]; Day 2) of the same compound?
A: 0.0

Q: What about the “% efficacy” value ([1]; Day 7) of the same compound?
A: (100) %

Q: What about the “Geometric mean group live tick count” value ([1]; Day 7) of the same compound?
A: 0.0

Q: What about the “% efficacy” value ([1]; Day 14) of the same compound?
A: (96.7) %

Q: What about the “Geometric mean group live tick count” value ([1]; Day 14) of the same compound?
A: 1.2

Q: What about the “% efficacy” value ([1]; Day 21) of the same compound?
A: (100) %

Q: What about the “Geometric mean group live tick count” value ([1]; Day 21) of the same compound?
A: 0.0

Q: What about the “Geometric mean group live tick count” value ([1]; Day 30) of the same compound?
A: 1.9

Q: And the residual efficacy ([1]; through Day 21)?
A: 97-100%

Q: And the tolerability [2]?
A: well tolerated

Q: And the mortality at 300 µM [3]?
A: ≥ 80%

Q: And the tolerability ([4]; oral 50 mg/kg, Example 9)?
A: well tolerated

Q: What about the “Geometric mean group live flea count” value [5] of the same compound?
A: 0.0

Q: What about the “Geometric mean group live tick count” value [6] of the same compound?
A: 1.9

Q: Which “efficacy (% reduction in live tick counts)” value ([7]; positive control, oral 10 mg/kg bodyweight, all studies) does the source give for `N#Cc1nn(-c2c(Cl)cc(C(F)(F)F)cc2Cl)c(N)c1[S+]([O-])C(F)(F)F` (stereo not shown) [Fipronil, reference compound] here?
A: > 95%

Q: For `CC1(C)OB(O)c2ccc(C3=NO[C@](c4cc(Cl)c(Cl)c(Cl)c4)(C(F)(F)F)C3)cc21` [Compound 18, (R)-3,3-Dimethyl-5-(5-(3,4,5-trichlorophenyl)-5-(trifluoromethyl)-4,5-dihydroisoxazol-3-yl)benzo[c][1,2]oxaborol-1(3H)-ol], which tolerability [2] is on record?
A: well tolerated

Q: And the “In vitro activity at 0.3 mM” value ([3]; 0.3 mM, A. americanum larvae, counted after 24 hours)?
A: 0.0%

Q: And the “% Efficacy at Dose of ≦5 mg/kg” value ([7]; oral point doses of ≦5 mg/kg, D. variabilis nymphs, 48 hours after treatment, 5 mg/kg)?
A: 10.7%

Q: Which mortality at 300 µM [3] does the source give for `CC1(C)OB(O)c2ccc(C3=NOC(c4cc(Cl)c(F)c(Cl)c4)(C(F)(F)F)C3)cc21` (stereo not shown) [Compound 8, 5-(5-(3,5-dichloro-4-fluorophenyl)-5-(trifluoromethyl)-4,5-dihydroisoxazol-3-yl)-3,3-dimethyl-benzo[c][1,2]oxaborol-1(3H)-ol] here?
A: ≥ 80%

Q: What about the tolerability ([4]; oral 25 or 50 mg/kg, Example 5) of the same compound?
A: well tolerated

Q: And the “% efficacy” value ([8]; 25 mg/kg oral capsule, Day 17)?
A: (73.4) %

Q: What about the “Geometric mean group live tick count” value ([8]; 25 mg/kg oral capsule, Day 17) of the same compound?
A: 7.2

Q: What about the “% efficacy” value ([8]; 50 mg/kg oral capsule, Day 17) of the same compound?
A: (80.2) %

Q: What about the “Geometric mean group live tick count” value ([8]; 50 mg/kg oral capsule, Day 17) of the same compound?
A: 5.4

Q: And the “% efficacy” value ([8]; 50 mg/kg oral capsule, Day 30)?
A: (42.1) %

Q: What about the “Geometric mean group live tick count” value ([8]; 50 mg/kg oral capsule, Day 30) of the same compound?
A: 21.5

Q: And the “% efficacy” value ([9]; 25 mg/kg oral capsule, Day 1)?
A: (81.0) %

Q: What about the “Geometric mean group live tick count” value ([9]; 25 mg/kg oral capsule, Day 1) of the same compound?
A: 2.0

Q: What about the “Geometric mean group live tick count” value ([9]; 25 mg/kg oral capsule, Day 2) of the same compound?
A: 0.0

Q: What about the “Geometric mean group live tick count” value ([9]; 25 mg/kg oral capsule, Day 7) of the same compound?
A: 1.5

Q: And the “% efficacy” value ([9]; 25 mg/kg oral capsule, Day 14)?
A: (85.0) %

Q: What about the “Geometric mean group live tick count” value ([9]; 25 mg/kg oral capsule, Day 14) of the same compound?
A: 2.5

Q: And the “% efficacy” value ([9]; 25 mg/kg oral capsule, Day 21)?
A: (79.3) %

Q: And the “Geometric mean group live tick count” value ([9]; 25 mg/kg oral capsule, Day 21)?
A: 3.4

Q: What about the “% efficacy” value ([9]; 50 mg/kg oral capsule, Day 1) of the same compound?
A: (80.9) %

Q: And the “Geometric mean group live tick count” value ([9]; 50 mg/kg oral capsule, Day 1)?
A: 2.0

Q: And the “Geometric mean group live tick count” value ([9]; 50 mg/kg oral capsule, Day 2)?
A: 0.0

Q: And the “Geometric mean group live tick count” value ([9]; 50 mg/kg oral capsule, Day 7)?
A: 0.6

Q: And the “% efficacy” value ([9]; 50 mg/kg oral capsule, Day 14)?
A: (80.4) %

Q: And the “Geometric mean group live tick count” value ([9]; 50 mg/kg oral capsule, Day 14)?
A: 3.2

Q: What about the “% efficacy” value ([9]; 50 mg/kg oral capsule, Day 21) of the same compound?
A: (75.1) %

Q: What about the “Geometric mean group live tick count” value ([9]; 50 mg/kg oral capsule, Day 21) of the same compound?
A: 4.0

From patent US9156860B2, “Boron-containing small molecules” (Anacor Pharmaceuticals, Inc., priority 2011, dated 2015)
